Measured values from PubChem BioAssay (NCI).
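96-well plates; 48 h exposure; 5 concentrations. Endpoints by linear interpolation between flanking doses. Not reached: highest tested concentration assigned. At the TGI there is no net growth.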

Key:
Test in all cases: NCI anticancer screen, dose series, 48 h
[1] = tested on: SF-295 CNS
[2] = tested on: K-562 leukemia
[3] = tested on: A498 renal
[4] = tested on: SK-MEL-5 melanoma
[5] = tested on: NCI-H23 lung
[6] = tested on: HOP-62 NSCLC
[7] = tested on: MDA-MB-435
[8] = tested on: MDA-MB-231 breast
[9] = tested on: MDA-N
[10] = tested on: SK-OV-3 ovarian
[11] = tested on: T-47D breast
[12] = tested on: RPMI-8226 leukemia
[13] = tested on: HCT-15 colon
[14] = tested on: HT29 colon
[15] = tested on: M14 melanoma
[16] = tested on: UACC-257 melanoma
[17] = tested on: UO-31 renal
[18] = tested on: MCF7 breast
[19] = tested on: CAKI-1 renal

Compound `CC1=C(C)SC(=C2Sc3c(n(C)c(=O)[nH]c3=O)S2)S1` has a TGI [1] of over 100 µM, a TGI [2] of over 100 µM and a TGI [3] of over 100 µM. The TGI [4] was over 100 µM, the TGI [5] was over 100 µM and the TGI [6] was over 100 µM. The TGI [7] was over 100 µM, the TGI [8] was over 100 µM and the TGI [9] was over 100 µM. It also gave a TGI [10] of over 100 µM, a TGI [11] of over 100 µM and a TGI [12] of over 100 µM. The TGI [13] was over 100 µM, the TGI [14] was over 100 µM and the TGI [15] was over 100 µM. It also gave a TGI [16] of over 100 µM, a TGI [17] of over 100 µM and a TGI [18] of over 100 µM. The TGI [19] was over 100 µM.

Compound `COc1cc(-c2c[nH]c3ccccc23)nc(-c2c[nH]c3ccccc23)n1` has a TGI [1] of 12.7 µM, a TGI [2] of 17.7 µM and a TGI [3] of 6.58 µM. For the same compound, the TGI [4] was 17.9 µM, the TGI [6] was 21 µM and the TGI [7] was 18.6 µM. It also gave a TGI [8] of 8 µM, a TGI [9] of 14.2 µM and a TGI [10] of 22.8 µM. It also gave a TGI [11] of 23.9 µM, a TGI [12] of 10.6 µM and a TGI [13] of 22.3 µM. For the same compound, the TGI [14] was 13.4 µM, the TGI [15] was 14.8 µM and the TGI [16] was 20.9 µM. The TGI [17] was 18.1 µM, the TGI [18] was 14.9 µM and the TGI [19] was 20.7 µM.

Compound `Cc1cc(S(=O)(=O)Nc2nc(N)n(-c3cnc4ccccc4n3)n2)c(S)cc1Cl` has a TGI [2] of over 100 µM, a TGI [3] of over 100 µM and a TGI [4] of over 100 µM. For the same compound, the TGI [6] was over 100 µM, the TGI [7] was over 100 µM and the TGI [8] was over 100 µM. For the same compound, the TGI [9] was over 100 µM, the TGI [10] was over 100 µM and the TGI [11] was over 100 µM. For the same compound, the TGI [13] was over 100 µM, the TGI [14] was over 100 µM and the TGI [15] was over 100 µM. The TGI [16] was over 100 µM, the TGI [17] was over 100 µM and the TGI [18] was over 100 µM. The TGI [19] was over 100 µM.

`Cn1c(=O)n(-c2c3ccccc3c(Cl)c3ccccc23)n(C(C)(C)C)c1=O` was tested, and the TGI [1] was over 100 µM, the TGI [2] was over 100 µM and the TGI [3] was over 100 µM. The TGI [4] was over 100 µM, the TGI [5] was over 100 µM and the TGI [6] was over 100 µM. It also gave a TGI [7] of over 100 µM, a TGI [8] of over 100 µM and a TGI [9] of over 100 µM. The TGI [10] was over 100 µM, the TGI [11] was over 100 µM and the TGI [13] was over 100 µM. For the same compound, the TGI [14] was over 100 µM, the TGI [15] was over 100 µM and the TGI [16] was over 100 µM. For the same compound, the TGI [17] was over 100 µM, the TGI [18] was over 100 µM and the TGI [19] was over 100 µM.

In the case of `Cc1cc(Cl)nc(NC(=O)CSc2ccc(Cl)cc2)n1`, the TGI [1] is reported as over 100 µM, the TGI [2] is reported as over 100 µM and the TGI [3] is reported as over 100 µM. The TGI [4] was over 100 µM, the TGI [5] was over 100 µM and the TGI [6] was over 100 µM. For the same compound, the TGI [7] was over 100 µM, the TGI [8] was over 100 µM and the TGI [9] was over 100 µM. It also gave a TGI [11] of over 100 µM, a TGI [12] of over 100 µM and a TGI [13] of over 100 µM. It also gave a TGI [14] of over 100 µM, a TGI [15] of over 100 µM and a TGI [16] of over 100 µM. The TGI [17] was over 100 µM.

Work on `CC(=O)OCC1OC(n2c(C)c(N=Nc3ccc(C)cc3)c(C)c(C#N)c2=S)C(OC(C)=O)C(OC(C)=O)C1OC(C)=O` (stereo unspecified) yielded a TGI [1] of over 100 µM, a TGI [2] of over 100 µM and a TGI [4] of over 100 µM. It also gave a TGI [5] of over 100 µM, a TGI [6] of over 100 µM and a TGI [7] of over 100 µM. The TGI [8] was over 100 µM, the TGI [9] was over 100 µM and the TGI [10] was over 100 µM. The TGI [11] was over 100 µM, the TGI [12] was over 100 µM and the TGI [14] was over 100 µM. The TGI [15] was over 100 µM, the TGI [16] was over 100 µM and the TGI [17] was over 100 µM. It also gave a TGI [18] of over 100 µM and a TGI [19] of over 100 µM.

Compound `O=[N+]([O-])C(/C(Cl)=C(/Cl)N1CCCCC1)=C1\NCCO1` has a TGI [1] of over 100 µM, a TGI [3] of over 100 µM and a TGI [5] of over 100 µM. It also gave a TGI [6] of over 100 µM, a TGI [7] of over 100 µM and a TGI [8] of over 100 µM. It also gave a TGI [9] of over 100 µM, a TGI [10] of over 100 µM and a TGI [11] of over 100 µM. The TGI [12] was over 100 µM, the TGI [13] was over 100 µM and the TGI [14] was over 100 µM. For the same compound, the TGI [15] was over 100 µM, the TGI [16] was over 100 µM and the TGI [17] was over 100 µM. For the same compound, the TGI [18] was over 100 µM and the TGI [19] was over 100 µM.

`c1ccc(N/N=C2\CC(c3ccccc3)Oc3ccccc32)cc1` (stereo unspecified) was tested, and the TGI [1] was over 100 µM, the TGI [2] was over 100 µM and the TGI [3] was over 100 µM. The TGI [4] was over 100 µM, the TGI [5] was over 100 µM and the TGI [6] was over 100 µM. It also gave a TGI [7] of over 100 µM, a TGI [8] of over 100 µM and a TGI [9] of over 100 µM. The TGI [10] was over 100 µM, the TGI [11] was over 100 µM and the TGI [13] was over 100 µM. For the same compound, the TGI [14] was over 100 µM, the TGI [15] was over 100 µM and the TGI [16] was over 100 µM. It also gave a TGI [17] of over 100 µM, a TGI [18] of over 100 µM and a TGI [19] of over 100 µM.

For `CCCSc1cc(Cl)c(C)cc1S(=O)(=O)n1cc[nH]c1=O`, the TGI [1] was over 100 µM, the TGI [2] was over 100 µM and the TGI [3] was over 100 µM. The TGI [4] was over 100 µM, the TGI [5] was over 100 µM and the TGI [6] was over 100 µM. For the same compound, the TGI [7] was over 100 µM, the TGI [8] was over 100 µM and the TGI [9] was over 100 µM. For the same compound, the TGI [10] was over 100 µM, the TGI [11] was over 100 µM and the TGI [13] was over 100 µM. It also gave a TGI [14] of over 100 µM, a TGI [15] of over 100 µM and a TGI [16] of over 100 µM. It also gave a TGI [17] of over 100 µM, a TGI [18] of over 100 µM and a TGI [19] of over 100 µM.

`CN(C)c1ccc(N=Nc2cccc3ccoc23)cc1` showed a TGI [1] of over 100 µM, a TGI [2] of over 100 µM and a TGI [3] of over 100 µM. The TGI [4] was over 100 µM, the TGI [5] was over 100 µM and the TGI [6] was over 100 µM. It also gave a TGI [7] of over 100 µM, a TGI [8] of over 100 µM and a TGI [9] of over 100 µM. It also gave a TGI [10] of over 100 µM, a TGI [11] of over 100 µM and a TGI [12] of over 100 µM. The TGI [13] was over 100 µM, the TGI [14] was over 100 µM and the TGI [15] was over 100 µM. For the same compound, the TGI [16] was over 100 µM, the TGI [17] was over 74.3 µM and the TGI [19] was over 100 µM.

`O=C1CN(c2cccc(C(F)(F)F)c2)C(=O)CN1NCNN1CC(=O)N(c2cccc(C(F)(F)F)c2)CC1=O` gave a TGI [1] of over 100 µM, a TGI [2] of over 100 µM and a TGI [4] of over 100 µM. For the same compound, the TGI [6] was over 100 µM, the TGI [7] was over 100 µM and the TGI [8] was over 100 µM. For the same compound, the TGI [9] was over 100 µM, the TGI [10] was over 100 µM and the TGI [11] was over 100 µM. For the same compound, the TGI [12] was over 100 µM, the TGI [13] was over 100 µM and the TGI [14] was over 100 µM. It also gave a TGI [15] of over 100 µM, a TGI [16] of over 100 µM and a TGI [17] of over 100 µM. The TGI [18] was over 100 µM.

Work on `CCOC(=O)CSc1nc2ccccc2c(=O)n1N` yielded a TGI [1] of over 100 µM, a TGI [2] of over 100 µM and a TGI [3] of over 100 µM. For the same compound, the TGI [4] was over 100 µM, the TGI [5] was over 100 µM and the TGI [7] was over 100 µM. It also gave a TGI [8] of over 100 µM, a TGI [9] of over 100 µM and a TGI [11] of over 100 µM. For the same compound, the TGI [12] was over 100 µM, the TGI [13] was over 100 µM and the TGI [14] was over 100 µM. It also gave a TGI [15] of over 100 µM, a TGI [16] of over 100 µM and a TGI [17] of over 100 µM. The TGI [18] was over 100 µM and the TGI [19] was over 100 µM.

`Cc1nnc(Nc2ccc(Cl)cc2)o1` gave a TGI [1] of over 10 µM, a TGI [2] of over 10 µM and a TGI [3] of over 10 µM. The TGI [4] was over 10 µM, the TGI [5] was over 10 µM and the TGI [6] was over 10 µM. The TGI [7] was over 10 µM, the TGI [8] was over 10 µM and the TGI [9] was over 10 µM. The TGI [10] was over 10 µM, the TGI [11] was over 10 µM and the TGI [13] was over 10 µM. For the same compound, the TGI [14] was over 10 µM, the TGI [15] was over 10 µM and the TGI [16] was over 10 µM. For the same compound, the TGI [17] was over 10 µM, the TGI [18] was over 10 µM and the TGI [19] was over 10 µM.
